Results as given in patent US20260174677A1, “METHODS OF TREATING INSULIN RESISTANCE AND ASSOCIATED DISORDERS” (The University of Melboune, priority 2022, published 2026).

Columns and labels:
Type in all cases: in vivo, mouse
[1] = Intranasal PZ6005 in diet-induced obese mice: food intake and energy expenditure; conditions: I.N. 1 or 5 mg/animal/day, Day 8-Day 11 of treatment, diet-induced obesity
Method: Mice were acclimated for 24 h and then monitored for 48 h in an environmentally controlled Promethion Metabolic Screening System (Sable Systems International, NV) fitted with indirect open circuit calorimetry, food consumption and activity monitors to measure activity, caloric intake and energy expenditure. Respiratory quotients were calculated as the ratio of CO2 production over O2 consumption respiratory exchange ratio and energy expenditure was calculated using the Weir equation (Kcal h-1=60×(0.003941×VO2+0.001106×VCO2). To account for difference in body mass/composition energy expenditure was analysed and adjusted using ANCOVA using scripts available at the National Mouse Metabolic Phenotyping Centers (MMPC, Nashville, TN, USA) Energy Expenditure Analysis Page (https://www.mmpc.org/shared/regression.aspx).
Conscious mice were restrained by scruffing and inverted parallel to the floor with the chin at ˜180-degree angle with the neck. Using a 10 μL tip, a pipettor was loaded with 5 μl of vehicle (ddH2O) or fluorosamine (1 mg/animal in 20 μl or 5 mg/animal in 20 μl). The tip of the filled pipettor was placed near the left nostril at a 45-degree angle, and the drug was ejected to form a small 5 μl droplet at tip for the mouse to inhale. […]

[2] = Intranasal PZ6005 in diet-induced obese mice: body weight, tissue mass and fat mass
Method: Metabolic measurements were undertaken in the Melbourne Mouse Metabolic Phenotyping Platform (The University of Melbourne, Australia). Glucose tolerance tests were performed on 6 h fasted conscious mice respectively by injecting D-glucose (2 mg/g of lean body mass and 1 mg/g lean mass for db/db and HFHS+STZ mice) into the peritoneal cavity and measuring glucose in tail blood immediately before and at 15, 30, 45, 60, 90 and 120 min after injection using an Accu-Check glucometer (Roche, Germany). The areas under glucose excursion curves were determined and expressed as mmol/1×min. Fasted (12 h fast) plasma insulin or glucose levels were determined using a Rat/Mouse Insulin ELISA (EZRMI-13K, Merck Millipore, CA) or an Accu-Check glucometer respectively. The HOMA-IR was calculated using the equation [(glucose×insulin)/405]. Adiposity was measured using TD-NMR minispec (Bruker Optics Inc., Billerica, MA).
Conscious mice were restrained by scruffing and inverted parallel to the floor with the chin at ˜180-degree angle with the neck. Using a 10 μL tip, a pipettor was loaded with 5 μl of vehicle (ddH2O) or fluorosamine (1 mg/animal in 20 μl or 5 mg/animal in 20 μl). The tip of the filled pipettor was placed near the left nostril at a 45-degree angle, and the drug was ejected to form a small 5 μl droplet at tip for the mouse to inhale. Immediately after the mouse inhaled the first droplet the remaining solution was ejected to form another small droplet for the mouse to inhale through the same nostril. The mouse was held in this position for 15 seconds before the procedure was repeated in the right nostril. The mouse was returned to the cage for 2 minutes and the process was repeated so that each mouse received four droplets of 5 μl each, delivering a total of 20 μl of solution. All drugs were administered delivered approximately 1 h before lights off […].
Changes in body weight of 12-week-HFHS-diet-fed obese mice during 14 days of intranasal administration of either vehicle or PZ6005 (1 or 5 mg/animal/day). Intranasal PZ6005 treatment induce weight loss in a dose-dependent manner, as assessed by significant differences in weight changes across groups. […] At the end of the experiment, mice in the highest dose of PZ6005 treatment had lost […] and those in the 1 mg treatment had lost […], whereas control littermates maintained at 3.57±1.28% of body weight (FIG. 10a).
To determine the influence of intranasal PZ6005-mediated attenuated neurofibrosis on tissue-specific adiposity and body composition, peripheral tissues and fat mass of the mice were weighed following the 14-day administration. […] Moreover, the reduction in overall fat mass depended upon the doses of PZ6005.

[3] = tested on: insulin induced p-AKT signalling in the ARC; assay: I.C.V. fluorosamine in obese mice: insulin-induced p-AKT in the ARC; conditions: following 10 days of treatment
Method: Under isoflurane anaesthetic 12-week HFHS fed C57BL/6J or AgRP-Cas9 mice were implanted stereotaxically with guide cannulas into the right lateral ventricle (0.2 mm posterior, 1.0 mm lateral from bregma). Guide cannula was positioned 1.3 mm above the injection site (1 mm ventral to the surface of the skull). AgRP-Cas9 mice were treated with either AAV-gScrambled or AAV-gIR and underwent guide cannula placement 7 days post AAV administration. Mice were administered I.C.V. vehicle (ddH2O), fluorosamine (100 μg/animal/day or 250 μgl/animal/day) in a volume of 2 μl/animal and all compounds were delivered approximately 1 h before lights off […].

[4] = I.N. 1 mg/animal/day, 14 days, obese mice
[5] = I.N. highest dose (5 mg/animal/day), 14 days, obese mice

SMILES: CC(=O)NC1C(OC(C)=O)OC(COC(C)=O)[C@@H](F)C1OC(C)=O (stereo partly shown) [fluorosamine, per-O-acetylated-4-F-N-acetylglucosamine]
- energy expenditure [1]: increases energy expenditure
- food intake [1]: decreases food intake
- body weight lost at the end of the experiment [2, 4]: 16.32±1.41%
- mass of epiWAT, BAT and liver [2, 4]: decreased
- post-treatment fat mass decrease compared to pre-treatment mass [2, 4]: 12.59±2.29%
- day from which weight was robustly decreased ([2]; I.N. 1 mg/animal/day, obese mice): 7 days
- day on which 5 mg treatment began to significantly reduce more weight than 1 mg treatment ([2]; I.N. 5 mg vs 1 mg/animal/day, persisted to day 14): 9 days
- post-treatment fat mass decrease compared to pre-treatment mass ([2]; I.N. 5 mg/animal/day, 14 days, obese mice): 23.21±9.27%
- day from which weight was robustly decreased ([2]; I.N. 5 mg/animal/day, obese mice): 3 days
- body weight lost at the end of the experiment [2, 5]: 6.36±0.88%
- tissue mass (adipose tissues and liver) [2, 5]: remarkedly reduced tissue mass
- whole-body metabolic improvements ([2]; intranasal, 14 days, diet-induced obese mice, compared with I.C.V. delivery): recapitulated the whole-body metabolic improvements observed with intracerebroventricular delivery
- insulin induced p-AKT signalling in the ARC [3]: enhanced insulin induced p-AKT signalling in the ARC
